Laboratory results from patent US20250188110A1, “SPECIFIC SMALL MOLECULE INHIBITORS THAT BLOCK KMT9 METHYLTRANSFERASE ACTIVITY AND FUNCTION” (ALBERT-LUDWIGS-UNIVERSITÄT FREIBURG, priority 2021, published 2025).
Where two headings read alike, the source gives them in different places.

Columns and labels:
KMT9 [1] = target: T1, KMT9 (Homo sapiens, UniProt Q9Y5N5); experiment: KMT9 thermal shift assay (SyproOrange); format: binding
T1 sequence (Q9Y5N5 1-214): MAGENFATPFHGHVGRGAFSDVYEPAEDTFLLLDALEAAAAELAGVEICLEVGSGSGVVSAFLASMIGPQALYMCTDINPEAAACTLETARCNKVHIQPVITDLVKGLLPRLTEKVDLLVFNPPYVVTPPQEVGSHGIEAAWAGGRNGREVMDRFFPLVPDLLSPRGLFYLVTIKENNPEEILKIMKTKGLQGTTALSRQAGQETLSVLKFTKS
T1 sequence (Q9UI30 1-120 isoform Q9UI30-2 partner): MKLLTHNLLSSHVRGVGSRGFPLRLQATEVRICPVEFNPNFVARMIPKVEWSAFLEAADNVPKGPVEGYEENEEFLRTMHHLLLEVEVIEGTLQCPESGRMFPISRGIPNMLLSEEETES
Procedure, shortened: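 ΔTm versus DMSO-only control is reported in bins (>20 K, 15–20 K, 10–15 K, ≤10 K), using Tm from Boltzmann sigmoidal fits of SyproOrange melt curves. KMT9 with compound in pH 8.5 BTP buffer containing MgCl2 and DTT was preincubated at 25° C, then ramped 1° C per 15 s up to 95° C.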

KMT9 [2] = target: T1, KMT9; experiment: KMT9 methyltransferase inhibition assay, MTaseGlo luminescence (from entry 155); format: biochemical; settings: 100 nM KMT9, 5 μM ETF1, 1 μM SAM
Procedure, shortened: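 KMT9 (100 nM final) pre-incubated with inhibitor for 15 min at room temperature, then reacted with 5 μM ETF1 and 1 μM SAM for 2 h at 30° C. at 2% DMSO final. MTaseGlo luminescence read after 60 min detection; IC50 reported in four potency bins.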

KMT9 [3] = target: T1, KMT9; experiment: Microscale thermophoresis (MST) KMT9 binding
Procedure, shortened: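 Kd from microscale thermophoresis: compound series against 20 nM His-KMT9 labelled via RED-Tris-NTA, buffer 25 mM HEPES (pH 7.5)/100 mM NaCl/1 mM DTT/0.05% Tween, 40% MST power, 100% LED. Reported as classes: A ≤10 nM, B >10–100 nM, C >100–1000 nM, D >1000 nM.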

[4] = 500 µM compound, 2 μM KMT9, read-out: Thermal shift (ΔTm)
[5] = MTaseGlo procedure (entries from 155), read-out: Inhibition (IC50)
[6] = His-tag labelled KMT9 20 nM, read-out: MST (Kd)
[7] = ΔTm class, 500 uM compound, 2 μM KMT9, read-out: Thermal shift
[8] = IC50 class, MTaseGlo procedure (entries from 155 on), read-out: Inhibition
[9] = His-tag labelled KMT9 20 nM, Kd class, read-out: MST

SMILES	ΔTm at 500 µM (KMT9 [1]; [4]) [°C]	IC50 (KMT9 [2]; [5]) [nM]	Kd (KMT9 [3]; [6]) [nM]	further results
Nc1nc(Cl)nc2c1c(-c1ccn(S(=O)(=O)c3ccccc3)n1)cn2[C@@H]1C[C@H](C2CCN(CCc3ccccc3)CC2)[C@@H](O)[C@H]1O [Compound 519, (1R,2S,3R,5R)-3-{4-amino-5-[1-(benzenesulfonyl)pyrazol-3-yl]-2-chloropyrrolo[2,3-d]pyrimidin-7-yl}-5-[1-(2-phenylethyl)piperidin-4-yl]cyclopentane-1,2-diol]	> 20	100 to 1000	≤ 10	–
Nc1nc(Cl)nc2c1c(-c1nc(Cc3ccccc3)cs1)cn2[C@@H]1C[C@H](C2CCN(C[C@H]3CCOC3)CC2)[C@@H](O)[C@H]1O [Compound 521R, (1R,2S,3R,5R)-3-(4-amino-5-(4-benzylthiazol-2-yl)-2-chloro-7H-pyrrolo[2,3-d]pyrimidin-7-yl)-5-(1-(((R)-tetrahydrofuran-3-yl)methyl)piperidin-4-yl)cyclopentane-1,2-diol]	15 to 20	1000 to 10000	10 to 100	–
O[C@@H]1[C@H](O)[C@@H](C2CCNCC2)C[C@H]1n1cc(-c2ccn(Cc3ccccc3)n2)c2cnc(Cl)nc21 [Compound 522, (1R,2S,3R,5R)-3-(5-(1-benzyl-1H-pyrazol-3-yl)-2-chloro-7H-pyrrolo[2,3-d]pyrimidin-7-yl)-5-(piperidin-4-yl)cyclopentane-1,2-diol]	–	–	–	ΔTm at 500 µM (KMT9 [1]; ΔTm, 500 µM compound, 2 μM KMT9, 5X SO, read-out: Thermal shift): 15 to 20 °C; IC50 (KMT9 [2]; from entry 155: MTaseGlo assay, read-out: Inhibition): 1000 to 10000 nM; Kd (KMT9 [3]; microscale thermophoresis, His-tag labelled KMT9 (20 nM), read-out: MST): 100 to 1000 nM
Nc1nc(Cl)nc2c1c(-c1nc(Cc3ccccc3)cs1)cn2[C@@H]1C[C@H](C2CCN(CC3CCCC3)CC2)[C@@H](O)[C@H]1O [Compound 523, (1R,2S,3R,5R)-3-(4-amino-5-(4-benzylthiazol-2-yl)-2-chloro-7H-pyrrolo[2,3-d]pyrimidin-7-yl)-5-(1-(cyclopentylmethyl)piperidin-4-yl)cyclopentane-1,2-diol]	10 to 15	1000 to 10000	100 to 1000	–
Nc1nc(Cl)nc2c1c(-c1nc(Cc3ccccc3)cs1)cn2[C@@H]1C[C@H](C2CCN(Cc3ccn[nH]3)CC2)[C@@H](O)[C@H]1O [Compound 524, (1R,2S,3R,5R)-3-[4-amino-5-(4-benzyl-1,3-thiazol-2-yl)-2-chloropyrrolo[2,3-d]pyrimidin-7-yl]-5-[1-(2H-pyrazol-3-ylmethyl)piperidin-4-yl]cyclopentane-1,2-diol]	15 to 20	100 to 1000	10 to 100	–
Nc1nc(Cl)nc2c1c(-c1nc(Cc3ccccc3)cs1)cn2[C@@H]1C[C@H](C2CCN(Cc3ccco3)CC2)[C@@H](O)[C@H]1O [Compound 525, (1R,2S,3R,5R)-3-(4-amino-5-(4-benzylthiazol-2-yl)-2-chloro-7H-pyrrolo[2,3-d]pyrimidin-7-yl)-5-(1-(furan-2-ylmethyl)piperidin-4-yl)cyclopentane-1,2-diol]	15 to 20	1000 to 10000	≤ 10	–
Nc1nc(Cl)nc2c1c(-c1nc(Cc3ccccc3)cs1)cn2[C@@H]1C[C@H](C2CCN(Cc3cccs3)CC2)[C@@H](O)[C@H]1O [Compound 526, (1R,2S,3R,5R)-3-(4-amino-5-(4-benzylthiazol-2-yl)-2-chloro-7H-pyrrolo[2,3-d]pyrimidin-7-yl)-5-(1-(thiophen-2-ylmethyl)piperidin-4-yl)cyclopentane-1,2-diol]	15 to 20	100 to 1000	≤ 10	–
Nc1nc(Cl)nc2c1c(-c1nc(Cc3ccccc3)cs1)cn2[C@@H]1C[C@H](C2CCN(Cc3ccncc3)CC2)[C@@H](O)[C@H]1O [Compound 527, (1R,2S,3R,5R)-3-(4-amino-5-(4-benzylthiazol-2-yl)-2-chloro-7H-pyrrolo[2,3-d]pyrimidin-7-yl)-5-(1-(pyridin-4-ylmethyl)piperidin-4-yl)cyclopentane-1,2-diol]	10 to 15	1000 to 10000	10 to 100	–
Nc1nc(Cl)nc2c1c(Br)cn2[C@@H]1C[C@H](CN(CCCNCCc2ccc(F)cc2)c2cn[nH]c2)[C@@H](O)[C@H]1O [Compound 538, (1R,2S,3R,5R)-3-(4-amino-5-bromo-2-chloro-7H-pyrrolo[2,3-d]pyrimidin-7-yl)-5-(((3-((4-fluorophenethyl)amino)propyl)(1H-pyrazol-4-yl)amino)methyl)cyclopentane-1,2-diol]	15 to 20	100 to 1000	≤ 10	–
CNc1nc(Cl)nc2c1ccn2[C@@H]1C[C@H](CNCCCNCCc2cccc(Oc3ccccc3)c2)[C@@H](O)[C@H]1O [Compound 555, (1R,2S,3R,5R)-3-(2-chloro-4-(methylamino)-7H-pyrrolo[2,3-d]pyrimidin-7-yl)-5-(((3-((3-phenoxyphenethyl)amino)propyl)amino)methyl)cyclopentane-1,2-diol]	15 to 20	100 to 1000	10 to 100	–
Nc1nc(Cl)nc2c1c(-c1ccccc1)cn2[C@@H]1C[C@H](CNCCCNCCc2cccc(Oc3ccccc3)c2)[C@@H](O)[C@H]1O [Compound 564, (1R,2S,3R,5R)-3-(4-amino-2-chloro-5-phenyl-7//pyrrolo[2,3-d]pyrimidin-7-yl)-5-(((3-((3-phenoxyphenethyl)amino)propyl)amino)methyl)cyclopentane-1,2-diol]	> 20	1000 to 10000	10 to 100	–
Nc1nc(Cl)nc2c1c(-c1ccccc1)cn2[C@@H]1C[C@H](CNCCCNCCc2ccc(F)cc2)[C@@H](O)[C@H]1O [Compound 566, (1R,2S,3R,5R)-3-(4-amino-2-chloro-5-phenyl-7/pyrrolo[2,3-d]pyrimidin-7-yl)-5-(( (3-((4-fluorophenethyl)amino)propyl)amino)methyl)cyclopentane-1,2-diol]	–	–	–	ΔTm at 500 µM (KMT9 [1]; [7]): > 20 °C; IC50 (KMT9 [2]; [8]): 100 to 1000 nM; Kd (KMT9 [3]; [9]): ≤ 10 nM
CCN(CCCNCCc1ccc(F)cc1)C[C@H]1C[C@@H](n2cc(-c3ccccc3)c3c(N)nc(Cl)nc32)[C@H](O)[C@@H]1O [Compound 568, (1R,2S,3R,5R)-3-(4-amino-2-chloro-5-phenyl-7//-pyrrolo[2,3-d]pyrimidin-7-yl)-5-((ethyl(3-((4-fluorophenethyl)amino)propyl)amino)methyl)cyclopentane-1,2-diol]	–	–	–	ΔTm at 500 µM (KMT9 [1]; [7]): > 20 °C; IC50 (KMT9 [2]; [8]): 100 to 1000 nM; Kd (KMT9 [3]; [9]): 10 to 100 nM
CN(CCCNCCc1ccc(F)cc1)C[C@H]1C[C@@H](n2cc(-c3ccccc3)c3c(N)nc(Cl)nc32)[C@H](O)[C@@H]1O [Compound 575, (1R,2S,3R,5R)-3-(4-amino-2-chloro-5-phenyl-7H-pyrrolo[2,3-d]pyrimidin-7-yl)-5-(((3-((4-fluorophenethyl)amino)propyl)(methyl)amino)methyl)cyclopentane-1,2-diol]	15 to 20	100 to 1000	≤ 10	–
Nc1nc(Cl)nc2c1ccn2[C@@H]1C[C@H](c2cn[nH]c2)[C@@H](O)[C@H]1O [Compound 582, (1R,2S,3R,5R)-3-{4-Amino-2-chloropyrrolo[2,3-d]pyrimidin-7-yl}-5-(1H-pyrazol-4-yl)cyclopentane-1,2-diol]	≤ 10	1000 to 10000	100 to 1000	–
CNc1nc(Cl)nc2c1ccn2[C@@H]1C[C@H](c2cn[nH]c2)[C@@H](O)[C@H]1O [Compound 583, (1R,2S,3R,5R)-3-[2-chloro-4-(methylamino)pyrrolo[2,3-d]pyrimidin-7-yl]-5-(1H-pyrazol-4-yl)cyclopentane-1,2-diol]	≤ 10	> 10000	> 1000	–
Nc1nc(Cl)nc2c1ccn2[C@@H]1C[C@H](c2cnn(CCc3ccccc3)c2)[C@@H](O)[C@H]1O [Compound 584, (1R,2S,3R,5R)-3-(4-Amino-2-chloro-7H-pyrrolo[2,3-d]pyrimidin-7-yl)-5-(1-phenethyl-1H-pyrazol-4-yl)cyclopentane-1,2-diol]	≤ 10	> 10000	> 1000	–
CN1CCC=C([C@H]2C[C@@H](n3cc(-c4nc(Cc5ccccc5)cs4)c4cnc(Cl)nc43)[C@H](O)[C@@H]2O)C1 [Compound 585, (1R,2S,3R,5R)-3-[5-(4-Benzyl-1,3-thiazol-2-yl)-2-chloropyrrolo[2,3-d]pyrimidin-7-yl]-5-(1-methyl-5,6-dihydro-2H-pyridin-3-yl)cyclopentane-1,2-diol]	–	–	–	ΔTm at 500 µM (KMT9 [1]; [7]): 10 to 15 °C; IC50 (KMT9 [2]; [8]): 1000 to 10000 nM; Kd (KMT9 [3]; [9]): 100 to 1000 nM
